According to patent US10934263B2, “Charged ion channel blockers and methods for use” (Nocion Therapeutics, Inc., priority 2019, dated 2021):

Target: T1, NaV1.7 (Homo sapiens, UniProt Q15858)
T1 construct: expressed in transfected cells; tetracycline-inducible, kept under hygromycin and blasticidin
Assay: Whole cell patch clamp, external block of NaV1.7 current (compound in external solution)
Assay type: cell-based
Conditions: % inhibition at test concentration 1,000 μM, compound applied externally; read-out: Nav1.7 Extracellular Inhibition
Experimental: Representative compounds of the invention were synthesized according to the described methods and tested for the ability to inhibit voltage-gated sodium channels.
NaV1.7 was expressed upon induction with tetracycline. Cells were cultured in DMEM containing 10% dialyzed Fetal Bovine Serum (VWR, Radnor, Pa.), 1% Glutamax (VWR, Radnor, Pa.), 1% Penicillin-Streptomycin (VWR, Radnor, Pa.), 100 mg/L Hygromycin (Thermo Fisher Scientific, Waltham, Mass. and 5 mg/L Blasticidin (Alfa Aesar, Haverhill, Mass.). Cells were grown and maintained at 37° C. in a humidified environment containing 10% CO2 in air. Cells were detached from the culture flask for passage and harvested using 0.05% Trypsin-EDTA (Thermo Fisher Scientific, Waltham, Mass.). To induce NaV1.7, cells were induced with tetracycline (0.1-1 μg/mL, IBI Scientific, Peosta, Iowa) the day before recording and plated onto 24-well plates. Cells were washed with DPBS (VWR, Radnor, Pa.), trypsinized and then triturated five times in 10 mL of growth media to break apart cell aggregates. For one 24-well plate, 2 mL of cell suspension was mixed with 23 mL of fresh growth media and 0.1-1 μg/mL tetracycline added. 1 ml of mixed media with cells was then added to each well of a 24-well plate, with a 12 mm coverslip already placed in the bottom of the well. Cells were then incubated in 37° C. and 10% CO2 overnight.
The intracellular solution contained the following (in mM) CsCl 135, NaCl 10, EGTA 10, HEPES 10, MgCl2 2, adjusted to pH 7.2 with CsOH. The external solution was a normal Ringer solution containing (in mM) NaCl 155, HEPES 10, glucose 10, KCl 3.5, CaCl2 1.5, MgCl2 1 adjusted to pH 7.4 with NaOH. CsCl is from Alfa Aesar, Haverhill, Mass. All other chemicals are from Sigma-Aldrich, St. Louis, Mo. In order to test the degree of internal block by test compounds the compounds were dissolved in internal solution at the indicated test concentration. […] In order to test the degree of external block by test compounds the compounds were dissolved in external solution at the indicated test concentration.
18-24 hours after cells were induced with tetracycline, coverslips were placed into a chamber filled with Normal Ringer solution at room temperature and the chamber placed on a microscope. Pipettes were pulled from borosilicate glass on a P97 puller (Sutter Instrument, Novato, Calif.) and polished with a MF-830 Microforge (Narishige International USA, Inc, Amityville, N.Y.) to have a resistance of 1.5-2.5 MΩ when filled with CsCl internal solution at room temperature. Healthy cells (those that are round and translucent with no visible blemishes) were chosen for seal formation. A seal was formed between the pipette and the cell, and a brief pulse of suction was used to “break in” and establish the whole-cell configuration. The membrane potential was held at −100 mV before the voltage protocol began. Only cells with series resistance between 1.5-5 MΩ were retained for analysis. The voltage protocol was as follows: Cells were held at −100 mV for 12 ms followed by a hyperpolarizing step to −105 mV for 12 ms to monitor the leak. Cells were then stepped back to −100 mV for 40 ms. Cells were then depolarized to −20 mV for 10 ms and then returned to −100 mV for 26 ms.
Once the recording was started, the voltage protocol was run at 30 second intervals for 5 minutes to get a stable baseline. This is followed by 5 Hz stimulation of the same voltage protocol run until the end of experiment. […] The test compound is added for 5 minutes before washing out with normal Ringer's solution. Currents were recorded using PatchMaster software with Heka EPC10 (HEKA Electronics, Lambrecht, Germany). Only cells with inward current amplitudes at −20 mV between 400 pA and 4 nA were accepted. In addition, cells having leak currents greater than 10% of their current amplitudes were discarded. […]

T1 sequence (Q15858 whole entry): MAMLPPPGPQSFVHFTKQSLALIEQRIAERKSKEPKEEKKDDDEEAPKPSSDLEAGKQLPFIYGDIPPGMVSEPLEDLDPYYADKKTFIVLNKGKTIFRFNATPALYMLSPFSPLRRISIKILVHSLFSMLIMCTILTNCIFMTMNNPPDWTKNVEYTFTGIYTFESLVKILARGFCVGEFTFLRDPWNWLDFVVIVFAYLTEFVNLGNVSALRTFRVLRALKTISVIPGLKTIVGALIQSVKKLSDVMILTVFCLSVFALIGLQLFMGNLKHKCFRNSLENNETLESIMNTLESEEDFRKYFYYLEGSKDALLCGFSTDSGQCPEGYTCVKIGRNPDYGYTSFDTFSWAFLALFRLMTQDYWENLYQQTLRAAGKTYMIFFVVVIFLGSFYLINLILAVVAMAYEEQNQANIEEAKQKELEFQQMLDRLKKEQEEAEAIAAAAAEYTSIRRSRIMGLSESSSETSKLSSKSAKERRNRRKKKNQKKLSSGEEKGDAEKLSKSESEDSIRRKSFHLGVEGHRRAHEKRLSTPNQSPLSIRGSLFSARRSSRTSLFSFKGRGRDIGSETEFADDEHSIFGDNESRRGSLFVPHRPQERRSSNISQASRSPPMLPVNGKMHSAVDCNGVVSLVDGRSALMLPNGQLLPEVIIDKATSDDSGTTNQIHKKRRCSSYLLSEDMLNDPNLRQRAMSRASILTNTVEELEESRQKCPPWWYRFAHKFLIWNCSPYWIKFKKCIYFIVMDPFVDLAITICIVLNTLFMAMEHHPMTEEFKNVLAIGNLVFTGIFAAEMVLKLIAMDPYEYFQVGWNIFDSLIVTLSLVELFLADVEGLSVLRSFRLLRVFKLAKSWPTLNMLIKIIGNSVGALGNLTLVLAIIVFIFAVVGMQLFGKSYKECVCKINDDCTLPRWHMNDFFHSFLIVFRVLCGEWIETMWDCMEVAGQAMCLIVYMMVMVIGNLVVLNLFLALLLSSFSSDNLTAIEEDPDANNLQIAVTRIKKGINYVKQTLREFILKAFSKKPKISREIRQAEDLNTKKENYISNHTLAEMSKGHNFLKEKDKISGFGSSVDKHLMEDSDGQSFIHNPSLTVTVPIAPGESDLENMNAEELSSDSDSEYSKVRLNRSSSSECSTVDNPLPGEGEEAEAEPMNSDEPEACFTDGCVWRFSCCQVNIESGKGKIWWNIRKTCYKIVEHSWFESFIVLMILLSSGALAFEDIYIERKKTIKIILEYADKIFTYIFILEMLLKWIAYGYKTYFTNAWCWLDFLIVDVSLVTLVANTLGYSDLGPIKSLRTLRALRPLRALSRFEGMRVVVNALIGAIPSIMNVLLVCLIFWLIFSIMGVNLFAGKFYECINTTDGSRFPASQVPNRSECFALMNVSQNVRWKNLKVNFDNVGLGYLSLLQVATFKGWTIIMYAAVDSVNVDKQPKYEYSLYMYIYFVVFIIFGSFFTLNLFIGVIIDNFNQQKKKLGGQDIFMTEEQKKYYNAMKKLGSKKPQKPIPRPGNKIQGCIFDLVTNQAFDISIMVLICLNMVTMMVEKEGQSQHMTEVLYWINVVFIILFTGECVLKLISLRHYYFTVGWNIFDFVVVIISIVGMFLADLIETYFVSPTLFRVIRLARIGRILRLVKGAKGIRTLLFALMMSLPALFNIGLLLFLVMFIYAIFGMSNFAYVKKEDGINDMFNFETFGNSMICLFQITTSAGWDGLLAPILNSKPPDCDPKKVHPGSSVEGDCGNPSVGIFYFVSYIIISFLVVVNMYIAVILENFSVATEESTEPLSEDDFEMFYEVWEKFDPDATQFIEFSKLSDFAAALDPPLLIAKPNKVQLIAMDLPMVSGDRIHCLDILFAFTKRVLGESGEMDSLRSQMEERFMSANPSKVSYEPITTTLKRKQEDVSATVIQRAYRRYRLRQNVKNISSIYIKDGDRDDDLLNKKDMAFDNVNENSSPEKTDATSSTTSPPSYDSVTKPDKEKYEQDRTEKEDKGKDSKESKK

Inhibition at 1000 µM, < 40%:
Cc1cccc(C)c1NC(=O)Cn1ccc[n+]1CC(=O)Nc1c(C)cccc1C [Compound 109]
CCOC(=O)CCCn1ccc[n+]1CC(=O)Nc1c(C)cccc1C [Compound 75]
CCOC(=O)Cn1cc(C)c[n+]1CC(=O)Nc1c(C)cccc1C [Compound 76]
